In patent publication US20030199526A1, “Pyrimidine-based compounds useful as GSK-3 inhibitors” (priority 2001, published 2003):

Molecular target: T1, GSK-3β (AA 1-420) (Homo sapiens, UniProt P49841)
T1 construct: GSK-3β (AA 1-420)
Experiment: Ki determination for the inhibition of GSK-3 (coupled enzyme system)
Format: biochemical
Conditions: 20 μM ATP, 300 μM peptide, 20 nM GSK-3β, 30° C.
Protocol: Compounds were screened for their ability to inhibit GSK-3β (AA 1-420) activity using a standard coupled enzyme system [Fox et al. Protein Sci. 7, 2249 (1998)]. Reactions were carried out in a solution containing 100 mM HEPES (pH 7.5), 10 mM MgCl2, 25 mM NaCl, 300 μM NADH, 1 mM DTT and 1.5% DMSO. Final substrate concentrations in the assay were 20 μM ATP (Sigma Chemicals, St Louis, Mo.) and 300 μM peptide (American Peptide, Sunnyvale, Calif.). Reactions were carried out at 30° C. and 20 nM GSK-3β. Final concentrations of the components of the coupled enzyme system were 2.5 mM phosphoenolpyruvate, 300 μM NADH, 30 μg/ml pyruvate kinase and 10 μg/ml lactate dehydrogenase.
An assay stock buffer solution was prepared containing all of the reagents listed above with the exception of ATP and the test compound of interest. The assay stock buffer solution (175 μl) was incubated in a 96 well plate with 5 μl of the test compound of interest at final concentrations spanning 0.002 μM to 30 μM at 30° C. for 10 min. Typically, a 12 point titration was conducted by preparing serial dilutions (from 10 mM compound stocks) with DMSO of the test compounds in daughter plates. The reaction was initiated by the addition of 20 μl of ATP (final concentration 20 μM). Rates of reaction were obtained using a Molecular Devices Spectramax plate reader (Sunnyvale, Calif.) over 10 min at 30° C. The Ki values were determined from the rate data as a function of inhibitor concentration.

T1 sequence (P49841 whole entry, species assumed, the tested form may be a part): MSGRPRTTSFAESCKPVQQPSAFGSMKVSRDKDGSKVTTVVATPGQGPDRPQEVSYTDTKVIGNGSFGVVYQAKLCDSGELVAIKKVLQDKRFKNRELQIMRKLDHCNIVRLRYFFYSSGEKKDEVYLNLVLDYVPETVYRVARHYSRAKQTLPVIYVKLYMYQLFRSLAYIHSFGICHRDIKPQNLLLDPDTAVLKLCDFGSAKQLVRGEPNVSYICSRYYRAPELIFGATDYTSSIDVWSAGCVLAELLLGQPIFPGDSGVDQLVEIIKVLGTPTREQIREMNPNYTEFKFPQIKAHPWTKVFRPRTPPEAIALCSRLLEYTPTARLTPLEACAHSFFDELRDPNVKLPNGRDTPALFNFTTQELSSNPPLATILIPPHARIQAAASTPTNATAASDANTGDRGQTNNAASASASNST

Row | Ki | SMILES
1 | < 100 nM | N#Cc1ccc(NCCNc2nc(-c3ccc(Cl)cc3Cl)nc3ccccc23)nc1 [Compound I-1, 6-{2-[2-(2,4-Dichloro-phenyl)-quinazolin-4-ylamino]-ethylamino}-nicotinonitrile]
2 | < 100 nM | N#Cc1ccc(NCCNc2nc(-c3ccccc3O)nc3ccccc23)nc1 [Compound I-189, 6-{2-[2-(2-Hydroxy-phenyl)-quinazolin-4-ylamino]-ethylamino}-nicotinonitrile]
3 | < 100 nM | N#Cc1ccc(NCCNc2nc(-c3ccccc3Cl)nc3cccnc23)nc1 [Compound I-118, 6-{2-[2-(2-Chloro-phenyl)-pyrido[3,2-d]pyrimidin-4-ylamino]-ethylamino}-nicotinonitrile]
4 | < 100 nM | COc1ccccc1-c1nc(NCCNc2ccc(C#N)cn2)c2ccccc2n1 [Compound I-188, 6-{2-[2-(2-Methoxy-phenyl)-quinazolin-4-ylamino]-ethylamino}-nicotinonitrile]
5 | < 100 nM | N#Cc1ccc(NCCNc2nc(-c3ccccc3)nc3ccccc23)nc1 [Compound I-9, 6-[2-(2-Phenyl-quinazolin-4-ylamino)-ethylamino]-nicotinonitrile]
6 | < 100 nM | N#Cc1ccc(NCCNc2nc(-c3ccc(F)cc3F)nc3ccccc23)nc1 [Compound I-191, 6-{2-[2-(2,4-Difluoro-phenyl)-quinazolin-4-ylamino]-ethylamino}-nicotinonitrile]
7 | < 100 nM | N#Cc1ccc(NCCNc2nc(-c3cc(Cl)ccc3-c3ccccc3)nc3ccccc23)nc1 [Compound I-195, 6-{2-[2-(4-Chloro-biphenyl-2-yl)-quinazolin-4-ylamino]-ethylamino}-nicotinonitrile]
8 | < 100 nM | Cc1nc(-c2ccc(Cl)cc2Cl)nc(NCCNc2ccc(C#N)cn2)c1C [Compound I-198, 6-{2-[2-(2,4-Dichloro-phenyl)-5,6-dimethyl-pyrimidin-4-ylamino]-ethylamino}-nicotinonitrile]
9 | < 100 nM | N#Cc1ccc(NCCNc2nc(-c3ccccc3F)nc3ccccc23)nc1 [Compound I-190, 6-{2-[2-(2-Fluoro-phenyl)-quinazolin-4-ylamino]-ethylamino}-nicotinonitrile]
10 | < 100 nM | N#Cc1ccc(NCCNc2nc(-c3ccc(Cl)cc3Cl)nc3ccccc23)cc1 [Compound I-62, 4-{2-[2-(2,4-Dichloro-phenyl)-quinazolin-4-ylamino]-ethylamino}-benzonitrile]
11 | < 100 nM | Cc1nc(-c2ccccc2C(F)(F)F)nc(NCCNc2ccc(C#N)cn2)c1C [Compound I-197, 6-{2-[5,6-Dimethyl-2-(2-trifluoromethyl-phenyl)-pyrimidin-4-ylamino]-ethylamino}-nicotinonitrile]
12 | < 100 nM | N#Cc1ccc(NCCNc2nc(-c3ccc(Cl)cc3)nc3ccccc23)nc1 [Compound I-2]
13 | < 100 nM | N#Cc1ccc(NCCNc2nc(-c3ccccc3C(F)(F)F)nc3ccccc23)nc1 [Compound I-8, 6-{2-[2-(Trifluoromethyl-phenyl)-quinazolin-4-ylamino]-ethylamino}-nicotinonitrile]
14 | < 100 nM | Cc1nc(-c2ccccc2Cl)nc(NCCNc2ccc(C#N)cn2)c1C [Compound I-200]
15 | < 100 nM | N#Cc1ccc(-c2nc(NCCNc3ccc(C#N)cn3)c3ccccc3n2)cc1 [Compound I-19, 6-{2-[2-(4-Cyano-phenyl)-quinazolin-4-ylamino]-ethylamino}-nicotinonitrile]
16 | < 100 nM | N#Cc1ccc(NCCNc2nc(-c3ccccc3Cl)nc3ccccc23)nc1 [Compound I-11, 6-{2-[2-(2-Chloro-phenyl)-quinazolin-4-ylamino]-ethylamino}-nicotinonitrile]
